Assay [1] can be described thus: Antitumor activity against mouse Ehrlich Ascites tumor xenografted in Swiss albino mouse assessed as tumor growth inhibition at 20 mg/kg, ip administered for 9 days measured on day 13. The format is functional. To be noted: route intraperitoneal, read-out: GI.
A short description of assay [2]: Antitumor activity against mouse Ehrlich Ascites tumor xenografted in Swiss albino mouse assessed as decrease in tumor weight at 20 mg/kg, ip administered for 9 days (reference value: 1708+/-51.07 mg). The format is functional. To be noted: route intraperitoneal.

SMILES strings stand for the structures.

On to `O=c1[nH]cc(F)c(=O)[nH]1` [FLUOROURACIL], for which the inhibition in vivo at 20 mg/kg in assay [1] turned out to be 51.3%. For the same compound, in assay [2], the Activity amounted to 832.28 mg.

Source of the values: ChEMBL document CHEMBL1806428, “Design and synthesis of spiro derivatives of parthenin as novel anti-cancer agents” (Eur J Med Chem, 2011).
